These results are taken from patent US20240409573A1, “CALICHEAMICIN DERIVATIVES AND ANTIBODY DRUG CONJUGATES THEREOF” (priority 2017, published 2024).

Format in all cases: cell-based
For assay [1], the system named is N87 (gastric cancer) cells, Her2-target expressing. Description: In vitro cell assay, cell viability by MTS, N87. The settings on record: 96 h, read-out: Average IC50, N87. On the procedure:
(§1) Her2-Target expressing (BT474 (breast cancer), N87 (gastric cancer), MDA-MB-361-DYT2 (breast cancer)) or Her2-non-expressing (MDA-MB-468, HT29) cells, or 0033-target expressing HL60, HEL92.1.7, NB4, TF-1 or 0033-non-expressing (Raji) cells were seeded in 96-well cell culture plates for 24 hours before treatment. Cells were treated with 3-fold serially diluted antibody-drug conjugates or free compounds (i.e., no antibody conjugated to the drug) in duplicate at 10 concentrations. Cell viability was determined by CellTiter 96® AQueous One Solution Cell Proliferation MTS Assay (Promega, Madison WI) 96 hours after treatment. Relative cell viability was determined as percentage of untreated control. IC50 values were calculated using a four parameter logistic model #203 with XLfit v4.2 (IDBS, Guildford, Surry, UK). Results are shown below in Table 3 (for payloads), Table 4 (for Herceptin conjugates), and Table 5 (for CD33 conjugates).

In assay [2] the test system is HT29 cells, Her2-non-expressing. Description: In vitro cell assay, cell viability by MTS, HT29. The note with it: Homo sapiens, HT-29, 96 h, read-out: Average IC50, HT29. On the procedure: as §1
Assay [3] deals with MDA-MB-361-DYT2 (breast cancer) cells, Her2-target expressing. Kind of assay: In vitro cell assay, cell viability by MTS, MDA-MB-361-DYT2. The note with it: 96 h, read-out: Average IC50, MDA-MB-361-DYT2. On the procedure: as §1
Assay [4] deals with HL60 cells, CD33-target expressing. Kind of assay: In vitro cell assay, cell viability by MTS, HL60. The settings on record: Homo sapiens, HL-60, 96 h, read-out: Average IC50, HL-60. On the procedure:
as §1

In assay [5] the test system is TF-1 cells, CD33-target expressing. Description: In vitro cell assay, cell viability by MTS, TF-1. The note with it: Homo sapiens, TF-1, 96 h, read-out: Average IC50, TF-1. On the procedure: as §1
Assay [6] deals with Raji cells, CD33-non-expressing. Description: In vitro cell assay, cell viability by MTS, Raji. The note with it: Homo sapiens, 96 h, read-out: Average IC50, Raji. On the procedure:
as §1

As usually defined, the IC50 is the midpoint of a concentration-inhibition curve.

For `CCN[C@H]1CO[C@@H](O[C@H]2[C@H](O[C@H]3C#C/C=C\C#C[C@]4(O)CC(=O)C(NC(=O)OC)=C3/C4=C\CSSC(C)C(=O)O)O[C@H](C)[C@@H](NO[C@H]3C[C@H](O)[C@H](SC(=O)c4c(C)c(I)c(O[C@@H]5O[C@@H](C)[C@H](O)[C@@H](OC)[C@H]5O)c(OC)c4OC)[C@@H](C)O3)[C@@H]2O)C[C@@H]1OC` (mixture of isomers) [Example P9], the IC50 was determined as 0.392 nM in assay [1], 0.334 nM in assay [2] and 1.89 nM in assay [3].

For `CCN(C(=O)Nc1ccc(CNC(=O)OCC2c3ccccc3-c3ccccc32)cc1)[C@H]1CO[C@@H](O[C@H]2[C@H](O[C@H]3C#C/C=C\C#C[C@]4(O)CC(=O)C(NC(=O)OC)=C3/C4=C\CSSC(C)(C)C)O[C@H](C)[C@@H](NO[C@H]3C[C@H](O)[C@H](SC(=O)c4c(C)c(I)c(O[C@@H]5O[C@@H](C)[C@H](O)[C@@H](OC)[C@H]5O)c(OC)c4OC)[C@@H](C)O3)[C@@H]2O)C[C@@H]1OC` [Example P49], the IC50 in assay [4] was 0.003 nM; in assay [5] it was 0.051 nM; in assay [6], 0.002 nM; in assay [1] it was 0.007 nM; in assay [2], 0.006 nM; in assay [3] it was less than 0.1 nM.

Turning to `CCN[C@H]1CO[C@@H](O[C@H]2[C@H](O[C@H]3C#C/C=C\C#C[C@]4(O)CC(=O)C(NC(=O)OC)=C3/C4=C\CSSC(C)(C)c3ccc(C(=O)O)cc3)O[C@H](C)[C@@H](NO[C@H]3C[C@H](O)[C@H](SC(=O)c4c(C)c(I)c(O[C@@H]5O[C@@H](C)[C@H](O)[C@@H](OC)[C@H]5O)c(OC)c4OC)[C@@H](C)O3)[C@@H]2O)C[C@@H]1OC` [Example P29], the IC50 in assay [4] was found to be 0.025 nM; in assay [5], 0.466 nM; in assay [6] it was 0.015 nM; in assay [1], 0.17 nM; in assay [2], 0.036 nM; in assay [3] it was 0.025 nM.

Regarding `CCN[C@H]1CO[C@@H](O[C@H]2[C@H](O[C@H]3C#C/C=C\C#C[C@]4(O)CC(=O)C(NC(=O)OC)=C3/C4=C\CSSC3CCN(C(=O)OC(C)(C)C)CC3)O[C@H](C)[C@@H](NO[C@H]3C[C@H](O)[C@H](SC(=O)c4c(C)c(I)c(O[C@@H]5O[C@@H](C)[C@H](O)[C@@H](OC)[C@H]5O)c(OC)c4OC)[C@@H](C)O3)[C@@H]2O)C[C@@H]1OC` [Example P17], the values for the IC50 in assay [1], in assay [2] and in assay [3] were 2.38 nM, 0.501 nM and 0.152 nM, respectively.

`CCNC1COC(OC2C(OC3C#C/C=C\C#C[C@]4(O)CC(=O)C(NC(=O)OC)=C3/C4=C\CSSC3CC3)OC(C)C(NOC3CC(O)C(SC(=O)c4c(C)c(I)c(OC5OC(C)C(O)C(OC)C5O)c(OC)c4OC)C(C)O3)C2O)CC1OC` (stereo in doubt) [Example P18]: the IC50 in assay [4] was found to be 0.005 nM; in assay [5] it was 0.093 nM; in assay [6], 0.003 nM; in assay [1] it was 0.033 nM; in assay [2], 0.005 nM; in assay [3] it was 0.017 nM.

With `CCN[C@H]1CO[C@@H](O[C@@H]2C(O)[C@H](NO[C@H]3C[C@H](O)[C@H](SC(=O)c4c(C)c(I)c(O[C@@H]5O[C@@H](C)[C@H](O)[C@@H](OC)[C@H]5O)c(OC)c4OC)[C@@H](C)O3)[C@@H](C)O[C@H]2O[C@H]2C#C/C=C\C#C[C@]3(O)CC(=O)C(NC(=O)OC)=C2/C3=C\CSSc2ccncc2)C[C@@H]1OC` (stereo in doubt) [Example P44], the IC50 is 0.127 nM in assay [4]; 1.48 nM in assay [5]; 0.171 nM in assay [6]; 0.418 nM in assay [1]; 1.26 nM in assay [2]; greater than 10 nM in assay [3].

`CCN[C@H]1CO[C@@H](O[C@H]2[C@H](O[C@H]3C#C/C=C\C#C[C@]4(O)CC(=O)C(NC(=O)OC)=C3/C4=C\CSSC(C)(C)CCN)O[C@H](C)[C@@H](NO[C@H]3C[C@H](O)[C@H](SC(=O)c4c(C)c(I)c(O[C@@H]5O[C@@H](C)[C@H](O)[C@@H](OC)[C@H]5O)c(OC)c4OC)[C@@H](C)O3)[C@@H]2O)C[C@@H]1OC` [Example P8]: the IC50 was 0.081 nM in assay [4]; 0.36 nM in assay [5]; 0.028 nM in assay [6]; 0.804 nM in assay [1]; 0.07 nM in assay [2]; 0.063 nM in assay [3].

For the compound `CCN[C@H]1CO[C@@H](O[C@H]2[C@H](O[C@H]3C#C/C=C\C#C[C@]4(O)CC(=O)C(NC(=O)OC)=C3/C4=C\CSSC3CCN(C)CC3)O[C@H](C)[C@@H](NO[C@H]3C[C@H](O)[C@H](SC(=O)c4c(C)c(I)c(O[C@@H]5O[C@@H](C)[C@H](O)[C@@H](OC)[C@H]5O)c(OC)c4OC)[C@@H](C)O3)[C@@H]2O)C[C@@H]1OC` [Example P15], the results for the IC50 in assay [1], in assay [2] and in assay [3] were 0.077 nM, 0.12 nM and 0.077 nM, respectively.

On to `CCN[C@H]1CO[C@@H](O[C@H]2[C@H](O[C@H]3C#C/C=C\C#C[C@]4(O)CC(=O)C(NC(=O)OC)=C3/C4=C\CSSC34CC5CC(CC(C5)C3)C4)O[C@H](C)[C@@H](NO[C@H]3C[C@H](O)[C@H](SC(=O)c4c(C)c(I)c(O[C@@H]5O[C@@H](C)[C@H](O)[C@@H](OC)[C@H]5O)c(OC)c4OC)[C@@H](C)O3)[C@@H]2O)C[C@@H]1OC` [Example P22], for which the results for the IC50 in assay [1], in assay [2] and in assay [3] were 0.015 nM, 0.009 nM and 0.044 nM, respectively.

Regarding `CCNC1COC(OC2C(OC3C#C/C=C\C#C[C@]4(O)CC(=O)C(NC(=O)OC)=C3/C4=C\CSSC3CCCCC3)OC(C)C(NOC3CC(O)C(SC(=O)c4c(C)c(I)c(OC5OC(C)C(O)C(OC)C5O)c(OC)c4OC)C(C)O3)C2O)CC1OC` (stereo in doubt) [Example P21], the IC50 worked out at 0.013 nM in assay [1], 0.012 nM in assay [2] and 0.064 nM in assay [3].

As for `CCN[C@H]1CO[C@@H](O[C@H]2[C@H](O[C@H]3C#C/C=C\C#C[C@]4(O)CC(=O)C(NC(=O)OC)=C3/C4=C\CSSC(C)(C)CC(=O)O)O[C@H](C)[C@@H](NO[C@H]3C[C@H](O)[C@H](SC(=O)c4c(C)c(I)c(O[C@@H]5O[C@@H](C)[C@H](O)[C@@H](OC)[C@H]5O)c(OC)c4OC)[C@@H](C)O3)[C@@H]2O)C[C@@H]1OC` [Example P32], the IC50 in assay [4] is 0.003 nM; in assay [5], 0.038 nM; in assay [6] it was 0.004 nM; in assay [1] it was 0.015 nM; in assay [2], 0.004 nM; in assay [3], 0.013 nM.

On to `CCN[C@H]1CO[C@@H](O[C@H]2[C@H](O[C@H]3C#C/C=C\C#C[C@]4(O)CC(=O)C(NC(=O)OC)=C3/C4=C\CSSC(C)(C)C#N)O[C@H](C)[C@@H](NO[C@H]3C[C@H](O)[C@H](SC(=O)c4c(C)c(I)c(O[C@@H]5O[C@@H](C)[C@H](O)[C@@H](OC)[C@H]5O)c(OC)c4OC)[C@@H](C)O3)[C@@H]2O)C[C@@H]1OC` [Example P23], for which the results for the concentration for half-maximal inhibition (IC50) in assay [1], in assay [2] and in assay [3] were 0.005 nM, 0.012 nM and 0.007 nM, respectively.

With `CCNC1COC(OC2C(OC3C#C/C=C\C#C[C@]4(O)CC(=O)C(NC(=O)OC)=C3/C4=C\CSSC3CCCC3)OC(C)C(NOC3CC(O)C(SC(=O)c4c(C)c(I)c(OC5OC(C)C(O)C(OC)C5O)c(OC)c4OC)C(C)O3)C2O)CC1OC` (stereo in doubt) [Example P20], the results for the half-inhibitory concentration (IC50) in assay [1], in assay [2] and in assay [3] were 0.004 nM, 0.002 nM and 0.005 nM, respectively.

Turning to `CCN[C@H]1CO[C@@H](O[C@H]2[C@H](O[C@H]3C#C/C=C\C#C[C@]4(O)CC(=O)C(NC(=O)OC)=C3/C4=C\CSSC(C)(C)c3cccnc3N)O[C@H](C)[C@@H](NO[C@H]3C[C@H](O)[C@H](SC(=O)c4c(C)c(I)c(O[C@@H]5O[C@@H](C)[C@H](O)[C@@H](OC)[C@H]5O)c(OC)c4OC)[C@@H](C)O3)[C@@H]2O)C[C@@H]1OC` [Example P26], the IC50 in assay [4] was determined as 0.002 nM; in assay [5] it was 0.036 nM; in assay [6], 0.004 nM; in assay [1] it was 0.035 nM; in assay [2], 0.004 nM; in assay [3] it was 0.017 nM.

For the compound `CCN[C@H]1CO[C@@H](O[C@H]2[C@H](O[C@H]3C#CC=CC#C[C@]4(O)CC(=O)C(NC(=O)OC)=C3/C4=C\CSSC3CCC3)O[C@H](C)[C@@H](NO[C@H]3C[C@H](O)[C@H](SC(=O)c4c(C)c(I)c(O[C@@H]5O[C@@H](C)[C@H](O)[C@@H](OC)[C@H]5O)c(OC)c4OC)[C@@H](C)O3)[C@@H]2O)C[C@@H]1OC` [Example P19], the IC50 in assay [1] worked out at 0.005 nM; in assay [2] it was 0.004 nM; in assay [3], 0.005 nM.

For `CCN[C@H]1CO[C@@H](O[C@H]2[C@H](O[C@H]3C#C/C=C\C#C[C@]4(O)CC(=O)C(NC(=O)OC)=C3/C4=C\CSSC[C@H](NC(=O)CC[C@H](N)C(=O)O)C(=O)NCC(=O)O)O[C@H](C)[C@@H](NO[C@H]3C[C@H](O)[C@H](SC(=O)c4c(C)c(I)c(O[C@@H]5O[C@@H](C)[C@H](O)[C@@H](OC)[C@H]5O)c(OC)c4OC)[C@@H](C)O3)[C@@H]2O)C[C@@H]1OC` [Example P14], the IC50 in assay [1] amounted to 2.73 nM; in assay [2], 2.22 nM; in assay [3], 15.6 nM.
